{"source": "patent US9163015B2", "about": "“Pyrazolopyridine, pyrarolopyrazine, pyrazolopyrimidine, pyrazolothiophene and pyrazolothiazole compounds as MGLUR4 allosteric potentiators, compositions, and methods of treating neurological dysfunction” (Vanderbilt University, priority 2010, dated 2015)", "data": [{"molecular_target": "human mGluR4 (Homo sapiens (Human), UniProt Q14833)", "sequence (Q14833 33-912)": "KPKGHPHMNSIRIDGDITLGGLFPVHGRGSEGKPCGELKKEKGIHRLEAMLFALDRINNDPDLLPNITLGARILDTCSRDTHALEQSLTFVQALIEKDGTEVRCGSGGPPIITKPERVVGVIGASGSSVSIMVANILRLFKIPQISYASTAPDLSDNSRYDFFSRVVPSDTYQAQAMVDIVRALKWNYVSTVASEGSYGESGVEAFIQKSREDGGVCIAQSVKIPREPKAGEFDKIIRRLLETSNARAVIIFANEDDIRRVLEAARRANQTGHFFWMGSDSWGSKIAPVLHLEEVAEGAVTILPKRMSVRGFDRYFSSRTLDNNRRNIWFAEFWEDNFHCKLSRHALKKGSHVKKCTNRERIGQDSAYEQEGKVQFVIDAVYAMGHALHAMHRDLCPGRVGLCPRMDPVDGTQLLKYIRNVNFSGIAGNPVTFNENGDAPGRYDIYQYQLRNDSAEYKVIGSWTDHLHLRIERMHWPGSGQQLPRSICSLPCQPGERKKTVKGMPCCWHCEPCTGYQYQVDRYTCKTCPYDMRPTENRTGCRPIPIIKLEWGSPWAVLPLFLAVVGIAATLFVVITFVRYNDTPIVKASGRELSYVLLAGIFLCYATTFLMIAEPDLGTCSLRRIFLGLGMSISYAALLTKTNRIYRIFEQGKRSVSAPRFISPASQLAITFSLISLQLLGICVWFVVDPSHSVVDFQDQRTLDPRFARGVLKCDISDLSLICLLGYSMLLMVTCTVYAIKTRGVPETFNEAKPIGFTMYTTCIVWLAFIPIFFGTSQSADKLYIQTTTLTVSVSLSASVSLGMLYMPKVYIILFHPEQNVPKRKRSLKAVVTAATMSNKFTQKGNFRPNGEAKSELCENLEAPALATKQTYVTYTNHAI", "assay": "mGluR4 potentiation assay, CHO cells transfected with human mGluR4, Ca2+-sensitive fluorescent dye, EC20 agonist", "assay_type": "cell-based", "conditions": "potentiation of mGluR4; table does not state human or rat receptor", "experimental": "The disclosed compounds and compositions can be evaluated for their ability to act as a potentiator of metabotropic glutamate receptor activity, in particular mGluR4 activity, by any suitable known methodology known in the art. For example, Chinese Hamster Ovary (CHO) cells transfected with human mGluR4 or HEK cells co-transfected with rat mGluR4 and the G-protein regulated Inwardly Rectifying Potassium channel (GIRK) were plated in clear bottom assay plates for assay in a Hamamatsu FDSS Fluorometric Plate Reader. The cells were loaded with either a Ca2+-sensitive fluorescent dye or the thallium responsive dye and the plates were washed and placed into a suitable kinetic plate reader. For human mGluR4 assays, a fluorescence baseline was established for 3-5 seconds, the disclosed compounds were then added to the cells, and the response in cells was measured. Approximately two and a half minutes later, a concentration of mGluR4 orthosteric agonist (e.g. glutamate or L-AP4) eliciting approximately 20% (EC20) of the maximal agonist response was added to the cells, and the response was measured. Two minutes later, a concentration of mGluR4 agonist (e.g. glutamate or L-AP4) eliciting 80% (EC80) of the maximal agonist response was added to the cells, and the response was measured. For rat mGluR4/GIRK experiments, a baseline was established for approximately five seconds, disclosed compounds were added, and either an EC20 or EC80 concentration of agonist was added approximately two and one half minutes later.\nThe above described assay operated in two modes. In the first mode, a range of concentrations of the disclosed compounds are added to cells, followed by a single fixed concentration of agonist. If the compound acts as a potentiatior, an EC50 value for potentiation and a maximum extent of potentiation by the compound at this concentration of agonist is determined by non-linear curve fitting. If the compound acts as a noncompetitive antagonist, an IC50 value is determined by non-linear curve fitting. In the second mode, several fixed concentrations of the disclosed compounds are added to various wells on a plate, followed by a range in concentrations of agonist for each concentration of disclosed compound. The EC50 values for the agonist at each concentration of compound are determined by non-linear curve fitting. A decrease in the EC50 value of the agonist with increasing concentrations of the sample compound (a leftward shift of the agonist concentration-response curve) is an indication of the degree of mGluR4 potentiation at a given concentration of the sample compound. A decrease in the maximal response of the agonist with increasing concentrations of the sample compounds, with or without a rightward shift in agonist potency, is an indication of the degree of noncompetitive antagonism at mGluR4. The second mode also indicates whether the sample compounds also affect the maximum response to mGluR4 to agonists.", "units": {"EC50": "nM"}, "values": [{"molecule": "Clc1cncc(Nc2n[nH]c3cccnc23)n1", "note": "[Example 32, N-(6-chloropyrazin-2-yl)-1H-pyrazolo[4,3-b]pyridin-3-amine]", "EC50": 9990}, {"molecule": "Cc1cccc(Nc2n[nH]c3cccnc23)c1", "note": "[Example 18, N-(m-tolyl)-1H-pyrazolo[4,3-b]pyridin-3-amine]", "EC50": 51.4}, {"molecule": "Clc1cccc(Oc2ccc(Nc3n[nH]c4cccnc34)cc2Cl)n1", "note": "[Example 77, N-(3-chloro-4-((6-chloropyridin-2-yl)oxy)phenyl)-1H-pyrazolo[4,3-b]pyridin-3-amine]", "EC50": 88}, {"molecule": "Clc1cc(Nc2n[nH]c3cccnc23)ccc1OCc1ccccc1", "note": "[Example 87, N-(4-(benzyloxy)-3-chlorophenyl)-1H-pyrazolo[4,3-b]pyridin-3-amine]", "EC50": 426}, {"molecule": "O=C(c1ccccc1F)c1ccc(Nc2n[nH]c3cccnc23)cc1Cl", "note": "[Example 88, (4-((1H-pyrazolo[4,3-b]pyridin-3-yl)amino)-2-chlorophenyl)(2-fluorophenyl)methanone]", "EC50": 311}, {"molecule": "Fc1ccc(Nc2n[nH]c3cccnc23)cc1F", "note": "[Example 5, N-(3,4-difluorophenyl)-1H-pyrazolo[4,3-b]pyridin-3-amine]", "EC50": 644}, {"molecule": "Cn1nc2cccnc2c1Nc1ccc(F)c(Cl)c1", "note": "[Example 59, N-(3-chloro-4-fluorophenyl)-2-methyl-2H-pyrazolo[4,3-b]pyridin-3-amine]", "EC50": 11900}, {"molecule": "Fc1cc(Cl)cc(Nc2n[nH]c3cccnc23)c1", "note": "[Example 70, N-(3-chloro-5-fluorophenyl)-1H-pyrazolo[4,3-b]pyridin-3-amine]", "EC50": 32}, {"molecule": "FC(F)(F)c1cc(Nc2n[nH]c3cccnc23)cc(C(F)(F)F)c1", "note": "[Example 67, N-(3,5-bis(trifluoromethyl)phenyl)-1H-pyrazolo[4,3-b]pyridin-3-amine]", "EC50": 3050}, {"molecule": "c1ccc(Nc2n[nH]c3cccnc23)cc1", "note": "[Example 20, N-phenyl-1H-pyrazolo[4,3-b]pyridin-3-amine]", "EC50": 1440}, {"molecule": "Cc1ccc(NC(=O)Nc2n[nH]c3cccnc23)cc1C", "note": "[Example 44, 1-(3,4-dimethylphenyl)-3-(1H-pyrazolo[4,3-b]pyridin-3-yl)urea]", "EC50": 12800}, {"molecule": "Clc1cc(Nc2n[nH]c3cccnc23)ccc1Oc1ccccn1", "note": "[Example 52, N-(3-chloro-4-(pyridin-2-yloxy)phenyl)-1H-pyrazolo[4,3-b]pyridin-3-amine]", "EC50": 112}, {"molecule": "CC(C)C1CCC(Nc2n[nH]c3cccnc23)CC1", "note": "(centres unmarked) [Example 29, N-(4-isopropylcyclohexyl)-1H-pyrazolo[4,3-b]pyridin-3-amine]", "EC50": 5220}, {"molecule": "COc1cccc(Nc2n[nH]c3cccnc23)c1", "note": "[Example 19, N-(3-methoxyphenyl)-1H-pyrazolo[4,3-b]pyridin-3-amine]", "EC50": 169}, {"molecule": "Fc1cc(Nc2n[nH]c3cccnc23)cc(C(F)(F)F)c1", "note": "[Example 62, N-(3-fluoro-5-(trifluoromethyl)phenyl)-1H-pyrazolo[4,3-b]pyridin-3-amine]", "EC50": 217}, {"molecule": "c1cnc2c(Nc3nccs3)n[nH]c2c1", "note": "[Example 45, N-(1H-pyrazolo[4,3-b]pyridin-3-yl)thiazol-2-amine]", "EC50": 10000}, {"molecule": "Cc1ccc(F)c(Nc2n[nH]c3cccnc23)c1", "note": "[Example 84, N-(2-fluoro-5-methylphenyl)-1H-pyrazolo[4,3-b]pyridin-3-amine]", "EC50": 314}, {"molecule": "Fc1cccc(Nc2n[nH]c3cccnc23)c1", "note": "[Example 12, N-(3-fluorophenyl)-1H-pyrazolo[4,3-b]pyridin-3-amine]", "EC50": 584}, {"molecule": "COc1cc(Nc2n[nH]c3cccnc23)ccc1Cl", "note": "[Example 6, N-(4-chloro-3-methoxyphenyl)-1H-pyrazolo[4,3-b]pyridin-3-amine]", "EC50": 1110}, {"molecule": "Cc1cc(NC(=O)Nc2n[nH]c3cccnc23)ccc1F", "note": "[Example 46, 1-(4-fluoro-3-methylphenyl)-3-(1H-pyrazolo[4,3-b]pyridin-3-yl)urea]", "EC50": 6840}, {"molecule": "Clc1cc(Nc2n[nH]c3cccnc23)cnc1Oc1ccccn1", "note": "[Example 96, N-(5-chloro-6-(pyridin-2-yloxy)pyridin-3-yl)-1H-pyrazolo[4,3-b]pyridin-3-amine]", "EC50": 3360}, {"molecule": "Fc1ccc(Cl)cc1Nc1n[nH]c2cccnc12", "note": "[Example 16, N-(5-chloro-2-fluorophenyl)-1H-pyrazolo[4,3-b]pyridin-3-amine]", "EC50": 116}, {"molecule": "Fc1cncc(Nc2n[nH]c3cccnc23)c1", "note": "[Example 4, N-(5-fluoropyridin-3-yl)-1H-pyrazolo[4,3-b]pyridin-3-amine]", "EC50": 9180}, {"molecule": "c1cnc2c(Nc3cncnc3)n[nH]c2c1", "note": "[Example 39, N-(pyrimidin-5-yl)-1H-pyrazolo[4,3-b]pyridin-3-amine]", "EC50": 8990}, {"molecule": "Clc1cncc(Nc2n[nH]c3cccnc23)c1", "note": "[Example 14, N-(5-chloropyridin-3-yl)-1H-pyrazolo[4,3-b]pyridin-3-amine]", "EC50": 353}, {"molecule": "Clc1ccnc(Nc2n[nH]c3cccnc23)c1", "note": "[Example 13, N-(4-chloropyridin-2-yl)-1H-pyrazolo[4,3-b]pyridin-3-amine]", "EC50": 284}]}]}
